These results are taken from ChEMBL document CHEMBL5614389, “Design, synthesis, and biological evaluation of RSL3-based GPX4 degraders with hydrophobic tags” (Eur J Med Chem, 2024).

Molecules are shown by their SMILES. Calls of active or inactive are those of the source. The rule behind the calls is not given here.

Assay [1] deals with HT-1080. Put plainly: Antiproliferative activity against human HT-1080 cells assessed as inhibition of cell growth incubated for 72 hrs by MTT assay. The assay is classed as functional, cell-based. Particulars: HT-1080, 72 h.
For assay [2], the system named is HT-1080. Put plainly: HyT activity at GPX4/E3 ligase in human HT-1080 cells assessed as degradation of GPX4 protein at 0.05 uM incubated for 24 hrs by Western blotting analysis relative to control. Type of assay: cell-based. A general note: Immunoblotting shows a protein as a band on a membrane.
For assay [3], the system named is HT-1080. Put plainly: HyT activity at GPX4/E3 ligase in human HT-1080 cells assessed as degradation of GPX4 protein at 0.2 uM incubated for 24 hrs by Western blotting analysis relative to control. Type of assay: cell-based.
Assay [4] concerns HT-1080. Put plainly: HyT activity at GPX4/E3 ligase in human HT-1080 cells assessed as degradation of GPX4 protein incubated for 24 hrs by Western blotting analysis. The assay is classed as cell-based.
A short description of assay [5]: HyT activity at GPX4/E3 ligase in human HT-1080 cells assessed as degradation of GPX4 protein by measuring degradation concentration incubated for 24 hrs by Western blotting analysis. Type of assay: cell-based. Particulars: HT-1080, 24 h.
Assay [6] has as its system HT-1080. Description: HyT activity at GPX4/E3 ligase in human HT-1080 cells assessed as degradation of GPX4 protein at 0.05 uM incubated for 7 hrs by Western blotting analysis. The assay is classed as cell-based.
The test system of assay [7] is HT-1080. Description: HyT activity at GPX4/E3 ligase in human HT-1080 cells assessed as degradation of GPX4 protein at 0.05 uM incubated for 12 hrs by Western blotting analysis relative to control. The assay is classed as cell-based.
The test system of assay [8] is HT-1080. Put plainly: HyT activity at GPX4/E3 ligase in human HT-1080 cells assessed as degradation of GPX4 protein at 0.05 uM incubated for 20 hrs by Western blotting analysis. Type of assay: cell-based.
In assay [9] the test system is HT-1080. Put plainly: HyT activity at GPX4/E3 ligase in human HT-1080 cells assessed as degradation of GPX4 protein at 0.05 uM by Western blotting analysis. Type of assay: cell-based. Particulars: TDE = time-dependent effect.
In assay [10] the test system is HT-1080. Put plainly: HyT activity at GPX4/E3 ligase in human HT-1080 cells assessed as degradation of GPX4 protein at 0.05 uM measured after 4 hrs in presence of cycloheximide by Western blotting analysis. The assay is classed as cell-based.
The subject of assay [11] is HT-1080. Description: HyT activity at GPX4/E3 ligase in human HT-1080 cells assessed as degradation of GPX4 protein at 0.05 uM in presence of cycloheximide by Western blotting analysis. The assay is classed as cell-based. Particulars: TDE = time-dependent effect.
The subject of assay [12] is HT-1080. Put plainly: HyT activity at GPX4/E3 ligase in human HT-1080 cells assessed as degradation of GPX4 protein at 0.05 uM incubated for 12 hr in presence of MG132 by Western blotting analysis. Type of assay: cell-based.
In assay [13] the test system is HT-1080. Put plainly: HyT activity at GPX4/E3 ligase in human HT-1080 cells assessed as degradation of GPX4 protein at 0.05 uM incubated for 12 hr in presence of chloroquine by Western blotting analysis. Type of assay: cell-based.
Assay [14] deals with MDA-MB-231. Put plainly: Antiproliferative activity against human MDA-MB-231 cells assessed as inhibition of cell growth incubated for 72 hrs by MTT assay. Type of assay: functional, cell-based. Particulars: MDA-MB-231, 72 h.
A further assay relates to 786-0. Put plainly: Antiproliferative activity against human 786-0 cells assessed as inhibition of cell growth incubated for 72 hrs by MTT assay. Type of assay: functional, cell-based. Particulars: 786-0, 72 h. On the technique in general: Tetrazolium dyes change colour on reduction, which living cells bring about.
A further assay concerns OS-RC-2. Description: Antiproliferative activity against human OS-RC-2 cells assessed as inhibition of cell growth incubated for 72 hrs by MTT assay. Type of assay: functional, cell-based. Particulars: OS-RC-2, 72 h.
The test system of assay [15] is MDA-MB-231. Put plainly: Antiproliferative activity against human MDA-MB-231 cells assessed as fold increase in inhibition of cell growth incubated for 72 hrs by MTT assay relative to RSL3. The assay is classed as functional.
In assay [16] the test system is HT-1080. Put plainly: Induction of ferroptosis in human HT-1080 cells assessed as increase in lipid peroxidation at 0.2 to 0.5 uM incubated for 4 hrs by C11 BODIPY 581/591 dye based flow cytometry. The assay is classed as functional, cell-based. Particulars: dose 0.2-0.5 µM.
Assay [17] deals with HT-1080. Description: Induction of ferroptosis in human HT-1080 cells assessed as increase in ROS production at 0.2 to 0.5 uM incubated for 4 hrs by DCFH-DA dye based flow cytometry. Type of assay: functional, cell-based. Particulars: dose 0.2-0.5 µM. Background: Flow cytometry measures light scatter and fluorescence of single cells or particles in a stream.
The subject of assay [18] is HT-1080. Description: Induction of ferroptosis in human HT-1080 cells assessed as increase in lipid peroxidation at 0.2 to 0.5 uM incubated for 4 hrs in presence of ferrostatin-1 by C11 BODIPY 581/591 dye based flow cytometry. The assay is classed as functional, cell-based. Particulars: dose 0.2-0.5 µM.
Assay [19] has as its system HT-1080. Put plainly: Induction of ferroptosis in human HT-1080 cells assessed as increase in ROS production at 0.2 to 0.5 uM incubated for 4 hrs in presence of ferrostatin-1 by DCFH-DA dye based flow cytometry. Type of assay: functional, cell-based. Particulars: dose 0.2-0.5 µM.
Assay [20] relates to HT-1080. Put plainly: HyT activity at GPX4/E3 ligase in human HT-1080 cells assessed as degradation of GPX4 protein at 0.05 uM incubated for 12 hr by Western blotting analysis. Type of assay: cell-based.

Usually IC50 stands for the concentration that gives 50% inhibition. Regarding `COC(=O)[C@H]1Cc2c([nH]c3ccccc23)[C@H](c2ccc(C(=O)NCCCCNC(=O)CC34CC5CC(CC(C5)C3)C4)cc2)N1C(=O)CCl`, in the assay on HT-1080 [1], the IC50 came to 122 nM. For the same molecule, the Activity was found to be 15% in the assay on HT-1080 [2] and 37% in the assay on HT-1080 [3].
Taken in the same sequence, the figures for `COC(=O)[C@H]1Cc2c([nH]c3ccccc23)[C@H](c2ccc(C(=O)NCCCCCCNC(=O)CC34CC5CC(CC(C5)C3)C4)cc2)N1C(=O)CCl` were 28 nM, 44% and 59%.
The matching figures for `COC(=O)[C@H]1Cc2c([nH]c3ccccc23)[C@H](c2ccc(C(=O)NCCCCCCCCNC(=O)CC34CC5CC(CC(C5)C3)C4)cc2)N1C(=O)CCl`: 163 nM, 15% and 31%.
Regarding `COC(=O)[C@H]1Cc2c([nH]c3ccccc23)[C@H](c2ccc(C(=O)N3CCN(CCNC(=O)CC45CC6CC(CC(C6)C4)C5)CC3)cc2)N1C(=O)CCl`, the IC50 with HT-1080 [1] is 71 nM.
On to `COC(=O)[C@H]1Cc2c([nH]c3ccccc23)[C@H](c2ccc(C(=O)N3CCN(CCCCCCCCNC(=O)CC45CC6CC(CC(C6)C4)C5)CC3)cc2)N1C(=O)CCl`, for which the IC50 in the assay with HT-1080 [1] was determined as 41 nM. The Activity with HT-1080 [2] came out at 35%; in the assay with HT-1080 [3], 58%.
As to `COC(=O)[C@H]1Cc2c([nH]c3ccccc23)[C@H](c2ccc(C(=O)NCCCCCNC(=O)CC34CC5CC(CC(C5)C3)C4)cc2)N1C(=O)CCl`, the IC50 with HT-1080 [1] is 64 nM. Further, the Activity in the assay on HT-1080 [2] is 20%; in the assay on HT-1080 [3], 38%.
The matching figures for `COC(=O)[C@H]1Cc2c([nH]c3ccccc23)[C@H](c2ccc(C(=O)NCCCCCCCCCCNC(=O)CC34CC5CC(CC(C5)C3)C4)cc2)N1C(=O)CCl`: 36 nM, 35% and 72%.
As to `COC(=O)[C@H]1Cc2c([nH]c3ccccc23)[C@H](c2ccc(C(=O)NCCOCCOCCNC(=O)CC34CC5CC(CC(C5)C3)C4)cc2)N1C(=O)CCl`, the 50% inhibitory concentration (IC50) in the assay with HT-1080 [1] was found to be 64 nM.
The term DC50 denotes the midpoint of the concentration-degradation curve. As to `COC(=O)[C@H]1Cc2c([nH]c3ccccc23)[C@H](c2ccc(C(=O)NCCCCCCCNC(=O)CC34CC5CC(CC(C5)C3)C4)cc2)N1C(=O)CCl`, the IC50 in the assay on HT-1080 [1] was determined as 24 nM; with MDA-MB-231 [14], 32 nM; in the assay with 786-0 it was 46 nM; in the assay with OS-RC-2, 72 nM. In addition, the Activity in the assay on HT-1080 [2] was 47%; in the assay with HT-1080 [3], 78%; in the assay on HT-1080 [4] it was “Dose-Dependent Effect”; with HT-1080 [7], 50%; with HT-1080 [9], “Tde”; in the assay on HT-1080 [11], “Tde”. In [5], the DC50 was 19 nM. Also, the outcome in the assay on HT-1080 [6], in the assay with HT-1080 [8], with HT-1080 [10], with HT-1080 [16] and with HT-1080 [17] was Active. Besides, the outcome in the assay on HT-1080 [12], in the assay on HT-1080 [13], in the assay on HT-1080 [18] and in the assay with HT-1080 [19] was inactive. Moreover, in the assay with MDA-MB-231 [15], the “fold change (FC)” value was found to be 4.
On to `COC(=O)[C@H]1Cc2c([nH]c3ccccc23)[C@H](c2ccc(C(=O)NCCOCCOCCOCCNC(=O)CC34CC5CC(CC(C5)C3)C4)cc2)N1C(=O)CCl`, for which the IC50 in the assay on HT-1080 [1] turned out to be 498 nM.
As for `COC(=O)[C@H]1Cc2c([nH]c3ccccc23)[C@H](c2ccc(C(=O)N3CCN(CCCCCCNC(=O)CC45CC6CC(CC(C6)C4)C5)CC3)cc2)N1C(=O)CCl`, in the assay on HT-1080 [1], the IC50 was determined as 30 nM. Further, the Activity in the assay on HT-1080 [2] stood at 44%; in the assay with HT-1080 [3], 70%.
`COC(=O)c1ccc([C@H]2c3[nH]c4ccccc4c3C[C@H](C(=O)OC)N2C(=O)CCl)cc1`: the IC50 was 90 nM in the assay on HT-1080 [1], 129 nM in the assay on MDA-MB-231 [14], 47 nM in the assay with 786-0 and 82 nM with OS-RC-2. Also, the Activity was 21% in the assay with HT-1080 [2] and 39% in the assay on HT-1080 [3]. In addition, the result in the assay on HT-1080 [20] was Active.
Regarding `COC(=O)[C@H]1Cc2c([nH]c3ccccc23)[C@H](c2ccc(C(=O)NCCCCCCCNC(C)=O)cc2)N1C(=O)CCl`, the IC50 in the assay on HT-1080 [1] stood at 380 nM. Moreover, the Activity in the assay with HT-1080 [2] turned out to be 5%; with HT-1080 [3], 6%.
As for `COC(=O)[C@H]1Cc2c([nH]c3ccccc23)[C@H](c2ccc(C(=O)N3CCN(CCCCNC(=O)CC45CC6CC(CC(C6)C4)C5)CC3)cc2)N1C(=O)CCl`, in the assay on HT-1080 [1], the IC50 worked out at 200 nM.
In the case of `COC(=O)[C@H]1Cc2c([nH]c3ccccc23)[C@H](c2ccc(C(=O)NCCNC(=O)CC34CC5CC(CC(C5)C3)C4)cc2)N1C(=O)CCl`, the IC50 in the assay with HT-1080 [1] worked out at 58 nM. Besides, the values for the Activity with HT-1080 [2] and with HT-1080 [3] were 33% and 52%, respectively.
Consider `COC(=O)[C@H]1Cc2c([nH]c3ccccc23)[C@H](c2ccc(C(=O)NCCOCCNC(=O)CC34CC5CC(CC(C5)C3)C4)cc2)N1C(=O)CCl`, for which the IC50 in the assay on HT-1080 [1] amounted to 120 nM.
